Experimental data published in paper PMC4483166, “Structural Basis of Specific Recognition of Non-Reducing Terminal N-Acetylglucosamine by an Agrocybe aegerita Lectin” (PLoS ONE, 2015).
Read-outs that look alike come from different tables or passages of the source.

What was measured:
[1] = target: T1, Agrocybe aegerita lectin 2 (AAL2) (Cyclocybe aegerita, UniProt H6CS64); test: crystal structure of the complex ([…] Å) and SPR steady-state affinity; assay type: binding
T1 construct: gene aal-2; recombinant AAL2 without any tag, expressed in E. coli BL21 (DE3); 407 amino acid residues
T1 sequence (H6CS64 1-407): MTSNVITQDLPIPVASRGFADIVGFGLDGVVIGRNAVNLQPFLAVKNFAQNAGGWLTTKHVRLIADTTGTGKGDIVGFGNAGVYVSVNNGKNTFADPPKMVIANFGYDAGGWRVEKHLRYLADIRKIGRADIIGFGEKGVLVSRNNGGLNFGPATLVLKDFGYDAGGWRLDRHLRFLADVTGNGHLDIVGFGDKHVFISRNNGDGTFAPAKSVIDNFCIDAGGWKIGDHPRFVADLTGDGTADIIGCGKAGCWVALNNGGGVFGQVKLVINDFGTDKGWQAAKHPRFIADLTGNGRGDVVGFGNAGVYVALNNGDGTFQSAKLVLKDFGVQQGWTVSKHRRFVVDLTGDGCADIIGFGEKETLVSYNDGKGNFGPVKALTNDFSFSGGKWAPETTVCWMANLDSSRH

[2] = target: T1, Agrocybe aegerita lectin 2 (AAL2); test: as above; assay type: binding; remark: listed apart in the source

Compound | Kd [1] | Kd [2]
CC(=O)N[C@H]1[C@H](O[C@H]2[C@@H](O)[C@@H](CO)O[C@@H](O[C@H]3[C@H](O)[C@@H](NC(C)=O)C(O)O[C@@H]3CO)[C@@H]2O)O[C@H](CO)[C@@H](O)[C@@H]1O (some centres unmarked) [GlcNAcβ1-3Galβ1-4GlcNAc] | 41.7 µM | –
CC(=O)N[C@@H]1[C@@H](O)[C@H](O)[C@@H](CO)O[C@H]1O [GlcNAc] | – | 28.3 µM
